Experimental findings from US8642502B2, “Reversible gel-forming compositions for controlled delivery of bioactive substances” (TRGel, LLC, priority 2010, dated 2014) are described below.

The nature of series [1]: Solubility of DM monomers and polymers in solvents. Format: physicochemical. An excerpt: The DM monomers as prepared by the methods exemplified in Examples 1-5 above were converted to polymers by the anionic polymerization reaction as illustrated in Reaction Scheme A and the physical properties of homopolymers of differing monomers are presented in Table 1. With reference to Table 1 it should be noted that all of the resulting polymers have very low poly dispersity (Mw/Mn). […] Water-soluble polymers are particularly useful in biological applications such as surface protection from non-specific adsorption. The data also illustrates that the glass transition temperature (Tg) of polymers with alkyl substituents decreases as the alkyl chain length increases. […] The DM polymers wherein R=2-methoxyethyl and R=ethoxy-2-methoxyethyl show lower critical solution temperature (LCST) behavior.

Series [2] in a line: Solubility of trans-stilbene oxide in water vs 10% copolymer solution (UV spectra). Format: physicochemical. Conditions: in 10% solution of p-MDM/DGDM copolymer. The protocol: Solutions of trans-stilbene oxide were prepared in water and in a 10% solution of p-MDM/DGDM copolymer.

As for `CCCCCCCCCCO[C@H]1[C@@H]2O[C@@H]2[C@@H]2OC[C@H]1O2` [DDM, 1,6:2,3-dianhydro-4-O-decyl-β-D-mannopyranose], the “solubility (in words)” value in series [1] was “soluble in hexane”. As for `c1ccc([C@@H]2O[C@H]2c2ccccc2)cc1` (relative stereo) [trans-stilbene oxide], the “solubility relative to solubility in water” value in series [2] was “improved”. On to `COCCOC1C2COC(O2)C2OC12` [MEDM, 1,6:2,3-dianhydro-4-O-(2-methoxyethyl)-β-D-mannopyranose], for which the “solubility (in words)” value in series [1] is given as “soluble in water”.
